In assay [1] the test system is primary human T-cells. Briefly: Proliferation assay after 5 days (CellTiter-Glo, CD3 stimulation; PBS counter screen). It is filed as cell-based. The following applies: CD3 stimulation; for Emax: 5 days, normalized to reference compound A1 as stimulator control = 100%, DMSO neutral control, read-out: Emax proliferation (% activation); for EC50: primary human T-cells, CellTiter-Glo after 5 days, EC50 of fitted sigmoidal curve, read-out: Tcell Proliferation CD3 EC50. The essentials: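 Luminescent ATP detection (CellTiter-Glo 2.0) quantified cell number 5 days after compounds went onto medium-only plates. Wells showing visible toxicity or precipitate were noted beforehand, and compounds that stimulated unstimulated cells or lowered viability were flagged.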
In general terms: Cellular ATP, detected with luciferase, serves as a proxy for viable cell number.

For assay [2], the system named is primary human T-cells.

Results on 15 molecules are retold here after patent US20240368150A1 (Hoffmann-La Roche Inc., priority 2021, published 2024).

Each structure is given as a SMILES string. Like-named read-outs stand apart in the source and are kept apart here.

As to `CC(C)(C)c1nnc(-c2cc3c(cc2F)S(=O)(=O)C[C@H](N)C(=O)N3Cc2ccc(OCCCCCCCCCCCNC(=O)CCC3=CC4=Cc5ccc(-c6ccc[nH]6)n5[B-](F)(F)[N+]4=C3)cc2)o1` [Example 189, 3-[2,2-difluoro-12-(1H-pyrrol-2-yl)-1-aza-3-azonia-2-boranuidatricyclo[7.3.0.03,7]dodeca-3,5,7,9,11-pentaen-5-yl]-N-[11-[4-[[(3R)-3-amino-7-(5-tert-butyl-1,3,4-oxadiazol-2-yl)-8-fluoro-1,1,4-trioxo-2,3-dihydro-1λ^6,5-benzothiazepin-5-yl]methyl]phenoxy]undecyl]propanamide], in the assay on primary human T-cells [1] (Homo sapiens, T-cell, 120 h), the Emax was 134%. For the same molecule, the EC50 was 680 nM with primary human T-cells [1] (Homo sapiens, T-cell, 120 h) and greater than 2730 nM with primary human T-cells [2].
For `NC1CN(c2nnc(-c3cc4c(cc3F)S(=O)(=O)C[C@H](N)C(=O)N4Cc3ccc(Cl)cc3)o2)CC(F)(F)C1` (stereo partly drawn) [Example 477, (3R)-3-amino-7-[5-(5-amino-3,3-difluoro-1-piperidyl)-1,3,4-oxadiazol-2-yl]-5-[(4-chlorophenyl)methyl]-8-fluoro-1,1-dioxo-2,3-dihydro-1λ^6.5-benzothiazepin-4-one] the same measures were 77%, 3490 nM and 2700 nM.
The like results for `N[C@H]1CS(=O)(=O)c2ccc(-c3nnc(N4CC5(CCCOC5)C4)o3)cc2N(Cc2ccc(Cl)cc2)C1=O` [Example 405, (3R)-3-amino-5-[(4-chlorophenyl)methyl]-7-[5-(6-oxa-2-azaspiro[3.5]nonan-2-yl)-1,3,4-oxadiazol-2-yl]-1,1-dioxo-2,3-dihydro-1λ^6,5-benzothiazepin-4-one] were, in that order, 86%, 1080 nM and 1320 nM.
For `CC(C#N)c1nnc(-c2cc3c(cc2F)S(=O)(=O)C[C@H](N)C(=O)N3Cc2ccc(Cl)cc2)o1` (stereo partly drawn) [Example 103, 2-[5-[(3R)-3-amino-5-[(4-chlorophenyl)methyl]-8-fluoro-1,1,4-trioxo-2,3-dihydro-1λ^6,5-benzothiazepin-7-yl]-1,3,4-oxadiazol-2-yl]propanenitrile] the same measures were 102%, 213 nM and 583 nM.
With `CC1(c2nc(-c3cc4c(cc3F)[S+]([O-])C[C@H](N)C(=O)N4Cc3ccc(Cl)cc3)no2)CC[N+]([O-])(CC(F)(F)F)CC1` (stereo partly drawn) [Example 308, (3R)-3-amino-5-[(4-chlorophenyl)methyl]-8-fluoro-7-[5-[4-methyl-1-oxido-1-(2,2,2-trifluoroethyl)piperidin-1-ium-4-yl]-1,2,4-oxadiazol-3-yl]-1-oxo-2,3-dihydro-1λ^4,5-benzothiazepin-4-one], in the assay on primary human T-cells [1] (Homo sapiens, T-cell, 120 h), the Emax amounted to 61% and the EC50 came out at 7630 nM. The same molecule registered an EC50 in the assay with primary human T-cells [2] greater than 10000 nM.
For `Cc1ccc(-c2nnc(-c3cc4c(cc3F)S(=O)(=O)C[C@H](N)C(=O)N4Cc3ccc(Cl)cc3)o2)cc1` [Example 106, (3R)-3-amino-5-[(4-chlorophenyl)methyl]-8-fluoro-1,1-dioxo-7-[5-(p-tolyl)-1,3,4-oxadiazol-2-yl]-2,3-dihydro-1λ^6,5-benzothiazepin-4-one] the same measures were 111%, 254 nM and 784 nM.
The like results for `CC(=O)N1CC2CC2(c2nnc(-c3cc4c(cc3F)S(=O)(=O)C[C@H](N)C(=O)N4Cc3ccc(Cl)cc3)o2)C1` (stereo partly drawn) [Example 182, (3R)-7-[5-(3-acetyl-3-azabicyclo[3.1.0]hexan-1-yl)-1,3,4-oxadiazol-2-yl]-3-amino-5-[(4-chlorophenyl)methyl]-8-fluoro-1,1-dioxo-2,3-dihydro-1λ^6,5-benzothiazepin-4-one] were, in that order, 38%, greater than 10000 nM and 1590 nM.
The like results for `CC1(c2nc(-c3cc4c(cc3F)S(=O)(=O)C[C@H](N)C(=O)N4Cc3ccc(Cl)cc3)no2)CCN(C(=O)N2CCCC2)CC1` [Example 305, (3R)-3-amino-5-[(4-chlorophenyl)methyl]-8-fluoro-7-[5-[4-methyl-1-(pyrrolidine-1-carbonyl)-4-piperidyl]-1,2,4-oxadiazol-3-yl]-1,1-dioxo-2,3-dihydro-1λ^6,5-benzothiazepin-4-one] were, in that order, 84%, 720 nM and 1810 nM.
Take `N[C@H]1CS(=O)(=O)c2cc(F)c(-c3nnc(NC4(CCO)CCCCC4)o3)cc2N(Cc2ccc(Cl)cc2)C1=O` [Example 483, (3R)-3-amino-5-[(4-chlorophenyl)methyl]-8-fluoro-7-[5-[[l-(2-hydroxyethyl)cyclohexyl]amino]-1,3,4-oxadiazol-2-yl]-1,1-dioxo-2,3-dihydro-1λ^6,5-benzothiazepin-4-one]: the Emax in the assay on primary human T-cells [1] (Homo sapiens, T-cell, 120 h) is 79%. Also, the EC50 came to 1540 nM in the assay with primary human T-cells [1] (Homo sapiens, T-cell, 120 h) and 2600 nM with primary human T-cells [2].
The like results for `N[C@H]1CS(=O)(=O)c2cc(F)c(-c3nnc(C4CC5(CCOC5)C4)o3)cc2N(Cc2ccc(Cl)cc2)C1=O` (stereo partly drawn) [Example 110, (3R)-3-amino-5-[(4-chlorophenyl)methyl]-8-fluoro-7-[5-(6-oxaspiro[3.4]octan-2-yl)-1,3,4-oxadiazol-2-yl]-1,1-dioxo-2,3-dihydro-1λ^6,5-benzothiazepin-4-one] were, in that order, 131%, 125 nM and 232 nM.
The like results for `N[C@H]1CS(=O)(=O)c2cc(F)c(-c3nnc(NC4CC(C(F)(F)F)C4)o3)cc2N(Cc2ccc(Cl)cc2)C1=O` (stereo partly drawn) [Example 504, (3R)-3-amino-5-[(4-chlorophenyl)methyl]-8-fluoro-1,1-dioxo-7-[5-[[3-(trifluoromethyl)cyclobutyl]amino]-1,3,4-oxadiazol-2-yl]-2,3-dihydro-1λ^6,5-benzothiazepin-4-one] were, in that order, 103%, 1110 nM and 1230 nM.
The like results for `N[C@H]1CS(=O)(=O)c2cc(F)c(-c3noc(N4CCOCC4)n3)cc2N(Cc2ccc(Cl)cc2)C1=O` [Example 196, (3R)-3-amino-5-[(4-chlorophenyl)methyl]-8-fluoro-7-(5-morpholino-1,2,4-oxadiazol-3-yl)-1,1-dioxo-2,3-dihydro-1λ^6,5-benzothiazepin-4-one] were, in that order, 81%, 16.6 nM and 36.1 nM.
As to `CC(C)Oc1ccc(CN2C(=O)[C@@H](N)CS(=O)(=O)c3cc(F)c(-c4noc(C5CN(C)CC(F)(F)C5)n4)cc32)nc1` (stereo partly drawn) [Example 346, (3R)-3-amino-7-[5-(5,5-difluoro-1-methyl-3-piperidyl)-1,2,4-oxadiazol-3-yl]-8-fluoro-5-[(5-isopropoxy-2-pyridyl)methyl]-1,1-dioxo-2,3-dihydro-1λ^6,5-benzothiazepin-4-one], in the assay with primary human T-cells [1] (Homo sapiens, T-cell, 120 h), the Emax is 100%. For the same molecule, the EC50 in the assay with primary human T-cells [1] (Homo sapiens, T-cell, 120 h) stood at 5650 nM; in the assay with primary human T-cells [2], 5720 nM.
In the case of `CC(Nc1nnc(-c2cc3c(cc2F)S(=O)(=O)C[C@H](N)C(=O)N3Cc2ccc(Cl)cc2)o1)C1CC1(F)F` (single isomer, unassigned) [Example 495], the Emax with primary human T-cells [1] (Homo sapiens, T-cell, 120 h) was 93%. Also, the figures for the EC50 with primary human T-cells [1] and with primary human T-cells [2] were 263 nM and 799 nM, respectively.
Take `CC(O)(c1nc(-c2cc3c(cc2F)S(=O)(=O)C[C@H](N)C(=O)N3Cc2ccc(Cl)cc2)no1)C(F)(F)F` (stereo partly drawn) [Example 319, (3R)-3-amino-5-[(4-chlorophenyl)methyl]-8-fluoro-1,1-dioxo-7-[5-(2,2,2-trifluoro-1-hydroxy-1-methyl-ethyl)-1,2,4-oxadiazol-3-yl]-2,3-dihydro-1λ^6,5-benzothiazepin-4-one]: in the assay with primary human T-cells [1] (Homo sapiens, T-cell, 120 h), the Emax turned out to be 113% and the EC50 was found to be 244 nM. This molecule showed an EC50 in the assay with primary human T-cells [2] of 458 nM.
